According to patent publication US6602861B1, “Acylated phospholipid drugs” (Research Corporation Technologies, Inc., priority 1992, dated 2003):
Entries after “also recorded” stand apart in the source; their conditions may differ. Read-outs that look alike come from different tables or passages of the source.

Experiments:
[1] = tested on: HIV; assay: microbe, parasite or virus in culture
Method: (§1) Briefly, the assay was performed as follows. On Day 0, MT4 cells were infected with HIV. On Day 3, mix 10^3-10^4 infected cells (resuspend cells at 10^4-10^5 cells/ml so that the desired number of cells is in a volume of 100 μl) with 10^5 SupT1 cells (suspended at 10^6/ml, so that there are 10^5 cells per 100 μl) in a 96 well plate. Infected cells are titered to find the optimum number of syncytial cells to count. Cells are counted either manually or by flow cytometry. […] The time intervals for other cell lines may vary. To assay drugs that block syncytia formation, 50 μl SupT1, 50 μl infected (MT4) cells (total cell number is the same), and 100 μl of drug are present.

[2] = tested on: PBMC; assay: Drug cytotoxicity MTT assay (TC50), PBMC; format: cell-based; details: PBMC cells, absence of HIV
Method: (§2) Three assays for anti-HIV activity were used and the IC50 was calculated from these assays; (i) syncytial cell assays, (ii) reverse transcriptase assays, and (iii) direct […]. In addition, direct drug cytotoxicity was tested ‘as a control’ in each assay which merely means that the drug was dosed to the cells without virus present. This control assured that only the antiviral effect of the compound is measured. However, this drug cytotoxicity was not used to calculate the TC50 because the TC50 required doses of drug that were higher than the effective concentrations. Thus the TC50 is the dose of drug that kills 50% of the cells without virus present and was measured in MTT assays using the same cells type to evaluate antiviral activity. The therapeutic index was calculated from TC50/IC50. The ability of anti-HIV phospholipids to inhibit direct cytopathic effect caused by HIV infection was also measured.
(§3) MT4 cells were plated in 96-well microtiter plates at 8×10^4 cells/well in a volume of 90 μl. [Note: To compare TC50 to IC50, the same cell type used in antiviral assays was tested in the MTT assay; for these experiments, MT4 cells were used to evaluate the syncytial cell assays and PBMC's were used to compare the PBMC/RT assay]. To this was added one minimum cytotoxic dose of HIV in a volume of 10 μl. […] Plates were read on an ELISA reader at Abs 570 nm. […]

[3] = tested on: HIV-1 (3B); assay: HIV-1 p24 antigen capture assay in infected monocyte-derived macrophages; format: cell-based; details: for dose response behaviour in MDM: 1-100 μM; for inhibition of HIV p24 antigen production in MDM: 50 μM
[4] = in vitro
Method: Stability of Anti-HIV Phlospholipids in Fresh Blood at 38° C.
Drug development using phospholipids will require that the parent compound is stable in blood. […] L-PE1 and L-PE2 are identical except that the methylene group in the 13 position of the sn-2 alkyl chain has been replaced with an oxygen atom.

[5] = Liposome formation in aqueous buffers; format: physicochemical
Excerpt: The increased activity of L-AC1 in MDM compared to CEM cells may be due to the phagocytosis of L-AC1 liposomes in MDM.

[6] = tested on: HIV infected MT4 cells; assay: Synergism with AZT in syncytial cell assays (FIG. 6); format: cell-based; details: for increase in activity (shift in dose response curve) when AZT was added: plus 0.5 nM AZT
Method: as §1

[7] = tested on: HIV; assay: Anti-HIV activity of D-AC2 and PE analogs compared with 12MO (FIG. 7); format: cell-based
[8] = target: bee venom phospholipase A2 (PLA2) (Apis mellifera, UniProt P00630)
[9] = tested on: HIV (S5G7, subclone of HTLVIIIB); assay: microbe, parasite or virus in culture; format: cell-based; details: 7 days after infection, read-out: IC50 50% Reduction in Reverse Transcriptase Activity PBMC
[10] = tested on: MT4 cells; assay: Drug cytotoxicity MTT assay (TC50), uninfected MT4 cells; format: cell-based
Method: as §2
(§4) MT4 cells were plated in 96-well microtiter plates at 8×10^4 cells/well in a volume of 90 μl. [Note: To compare TC50 to IC50, the same cell type used in antiviral assays was tested in the MTT assay; for these experiments, MT4 cells were used to evaluate the syncytial cell assays and PBMC's were used to compare the PBMC/RT assay]. To this was added one minimum cytotoxic dose of HIV in a volume of 10 μl. The test drug was added in 100 μl aliquots at several concentrations. A control plate using uninfected MT4 cells was set up simultaneously to assess cytotoxicity due to the drug alone. The plates were then incubated for five days at 37° C. Then the media was aspirated from the wells and replaced with 100 μl MTT solution (3-(4,5-dimethylthiazol-2-yl)-2,5-di-phenyltetrazolium bromide, 1 mg/ml in PBS) and incubated for 4 hours at 37° C. The plates were then centrifuged to pellet the cells, and the supernatants were removed (centrifugation can be omitted if the supernatants are removed carefully). […] Plates were read on an ELISA reader at Abs 570 nm. […]

[11] = tested on: HIV-1; details: CEM cells
Excerpt: The S5G7 strain of HIV was used. S5G7 is a subclone of HTLVIIIB grown in H9 cells, and highly virulent regarding T cell infectivity, but less so for monocytes; this strain was obtained from Abbott Laboratories.
This assay measures the ability of a drug to inhibit the HIV virus from killing cells. CEM cells were used for this assay.
The T-cell HIV inhibition assay method of acutely infected cells is an automated tetrazolium based calorimetric assay adapted from Novak, et al., Aids Res. and Human Retroviruses, 6, 973 (1990). Assays were performed in 96-well tissue culture plates. CEM cells were grown in RPMI-1640 medium (Gibco) supplemented with 10% fetal calf serum and were then treated with polybrene (2 μg/ml). A 80 μl volume of medium containing 1×10^4 cells was dispensed into each well of the tissue culture plate. To each well was added a 100 μl volume of test compound dissolved in tissue culture medium (or medium without test compound as a control) to achieve the desired final concentration and the cells were incubated at 37° C. for 1 hour. A frozen culture of HIV-1 was diluted in culture medium to a concentration of 5×10^6 TCID50 per ml (TCID50=the dose of virus that infects 50% of cells in tissue culture), and a 20 μl volume of the virus sample (containing 1000 TCID50 of virus) was added to wells containing test compound and to wells containing only medium (infected control cells). […] Several wells received culture medium without virus (uninfected control cells). Azidothymidine (AZT) was tested as a positive drug control.
Following the addition of virus, cells were incubated at 37° C. in a humidified, 5% CO2 atmosphere for 7 days. Additional aliquots of test compounds were added on days 2 and 5. On day 7 post-infection, the cells in each well were resuspended and a 100 μl sample of each cell suspension was removed for assay. […] The absorbance of each sample was determined at 590 nm using a Molecular Devices microplate reader. The % reduction of the virus induced cytopathic effect (CPE) by the test compounds was calculated from the equation.

[12] = tested on: CEM cells
[13] = delivered to cells as a free fatty acid; cited from earlier work
[14] = Drug cytotoxicity MTT assay (TC50), PBMC; format: cell-based; details: human, uninfected; PBMC cells, absence of HIV
Method: as §2, §3

[15] = tested on: CEM cells; assay: Direct cytotoxicity of compounds to CEM cells without virus; details: for direct cytotoxicity to CEM cells: no virus
[16] = tested on: monocyte-derived macrophages (MDM); assay: Toxicity seen in the macrophage p24 experiment; details: 100 μM
[17] = tested on: HIV infected MT4 cells; details: literature report; cited from earlier work
[18] = Drug cytotoxicity MTT assay (TC50), uninfected MT4 cells; format: cell-based; details: human, uninfected MT4 cells; MT4 cells, absence of HIV
Method: as §2, §4

Chain of bee venom phospholipase A2 (PLA2) (P00630 34-167 limits assumed): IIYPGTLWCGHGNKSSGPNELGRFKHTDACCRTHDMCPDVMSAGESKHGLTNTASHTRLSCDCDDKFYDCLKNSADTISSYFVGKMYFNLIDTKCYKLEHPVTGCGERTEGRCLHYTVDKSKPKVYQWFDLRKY

1,2-(di-12-methoxydodecanoyl)-sn-3-phosphatidylcholine [L-AC2]
IC50 ([1]; read-out: IC50 50% Reduction in syncytial cell formation MT4 cells, HIV infected MT4 cells, SupT1 target cells): 1 µM | IC50 ([1]; read-out: IC50 50% Reduction in syncytial cell formation MT4 cells, HIV infected MT4 cells, SupT1 target cells, listed as AC2): ~1 µM | CC50 [2]: 220 µM | inhibition of HIV infection in macrophages (p24 antigen) ([3]; 1 μM, 15 day acute infection): completely suppressed | inhibition of HIV infection in macrophages (p24 antigen) ([3]; 1 μM, 15 day acute infection, listed as AC2): completely effective | dose response behaviour in MDM [3]: No dose response was observed | inhibition of HIV infection in macrophages (p24 antigen) ([3]; all doses tested (1-100 μM)): completely inhibited | potency in HIV infected MDM compared with 12MO ([3]; comparison in words): significantly more potent | halflife in fresh blood [4]: 4.56 h | liposome formation [5]: formed liposomes | activity alone in syncytial cell assay ([6]; 5 nM): inactive | inhibition of syncytia formation ([6]; 5 nM L-AC2 plus 0.5 nM AZT, HIV infected MT4 cells): ~50% | activity alone in syncytial cell assay ([6]; 10 nM): inactive | synergistic effects with AZT ([6]; compared with 12MO and AZT, FIG. 6): increased synergistic effects | increase in activity (shift in dose response curve) when AZT was added [6]: approximately 100 fold | IC50 [7]: ~1 µM | hydrolysis by PLA2 [8]: quantitatively hydrolyzed | IC50 ([9]; PBMC, listed as AC2): ~4 µM | IC50 ([9]; PBMC): 6 µM | CC50 ([10]; MT4 cells, absence of HIV): 280 µM | TC50 in the presence of AZT ([10]; uninfected MT4 cells, AZT 50 nM to 500 nM): unchanged

1-(12-methoxydodecanoyl)-sn-3-glycerophosphatidylcholine [lysoAC2]
IC50 ([11]; read-out: IC50, reduction of virus induced cytopathic effect (CPE), 7 days, FIG. 1): ~100 µM | toxicity compared with the other analogs [12]: significantly less toxic

1-myristoyl-2-(12-methoxydodecan-oyl)-sn-3-phosphalidylcholine [AC1]
activity in direct cytopathic assay ([11]; 50 μM): little activity | anti-HIV activity with the active fatty acid anchored in the sn-2 position ([11]; FIG. 1, in words): significantly reduced the activity | inhibition of HIV p24 antigen production in MDM [3]: completely suppressed | inhibition of HIV infection in macrophages (p24 antigen) ([3]; 100 μM): almost complete inhibition | dose response behaviour in MDM ([3]; listed as L-AC1): dose responsive activity | liposome formation [5]: formed liposomes | toxicity compared with the other analogs [12]: significantly less toxic

COCCCCCCCCCCCC(=O)O [12MO, 12-methoxydodecanoic acid, reference compound]
T2 for incorporation into triglycerides and membrane lipids [13]: 1 to 2 min | IC50 ([1]; Human immunodeficiency virus 1, read-out: IC50 50% Reduction in syncytial cell formation MT4 cells, HIV infected MT4 cells, SupT1 target cells): ~4 µM | Therapeutic Index MT4 cells (TC50/IC50) ([1]; MT4 cells, syncytial cell assay): 35 | CC50 at 5 days [14]: 340 µM | inhibition of HIV p24 antigen production in MDM [3]: little activity | activity in MDM ([3]; 100 μM): ~100% | inhibition of HIV infection in macrophages (p24 antigen) ([3]; 100 μM): completely suppressed; also recorded: suppressed HIV replication | dose response behaviour in MDM [3]: very steep dose response effect | inhibition of HIV infection in macrophages (p24 antigen) ([3]; doses from 1 to 50 μM (below 100 μM)): little activity | direct cytotoxicity to CEM cells ([15]; 40 μM): showed toxicity | toxicity compared with the other analogs ([15]; CEM cells, comparison in words): most toxic analog tested in this series | direct cytotoxicity to CEM cells ([15]; dose up to 400 μM): toxic | toxicity in macrophage experiment [16]: toxic | synergism when administered concurrently with AZT (reported) [17]: act synergistically | increase in activity (shift in dose response curve) when AZT was added [6]: < 10 fold | IC50 ([9]; Human immunodeficiency virus 1, PBMC, 168 h): ~12 µM | IC50 ([9]; PBMC): 19 µM | CC50 at 5 days [18]: 140 µM

CCCCCCCCCCCCCC(=O)OC[C@H](COP(=O)(O)OCCN)OC(=O)CCCCCCCCCCCOC [L-PE1, 1-Myristoyl-2-[12-methoxydodecanoyl]-sn-glycero-3-phosphoethanolamine]
half-life [4]: > 50 h | IC50 ([7]; Human immunodeficiency virus 1): 6 µM

COCCCCCCCCCCCC(=O)OC[C@H](COP(=O)(O)OCCN)OC(=O)CCCCCCCCCCCOC [L-PE2, 1,2 di-(12-Methoxydodecanoyl)-sn-glycero-3-phosphoethanolamine]
half-life [4]: 9.36 h | anti-HIV activity relative to 12MO [7]: > 100 fold | IC50 ([7]; Human immunodeficiency virus 1): 0.02 µM
